The subject of the assay is L. donovani axenic amastigotes, Alamar Blue fluorescence, 72 h. The experiment in a line: antileishmanial activity on axenic amastigotes – plate reader, dry powder, dose response (AID 651892).

Active and inactive are the calls of the source.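 The calls were made as follows: active = IC50 below three times the IC50 of the reference antileishmanial control drug; inactive = the rest.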

By IC50 is commonly meant the point on the concentration scale where inhibition reaches its midpoint. Turning to `C[C@@H]1CN([C@@H](C)CO)C(=O)c2cccc(NC(=O)c3ccncc3)c2O[C@H]1CN(C)Cc1ccc(Oc2ccccc2)cc1`, the IC50 was 40.5 µM (inactive).
